Measured values published in patent US20100190755A1, “TETRACYCLINE COMPOUNDS FOR THE TREATMENT OF RHEUMATOID ARTHRITIS AND RELATED METHODS OF TREATMENT” (priority 2008, published 2010).
≈ marks a conversion by molar mass, not a printed value.

Tests used:
IL-6 = assay: Paw extract biomarker ELISA, CIA mice: IL-6; format: in vivo, mouse; settings: paw extracts from CIA mice
Description: (§1) • 1. Male DBA/1 mice were immunized i.d. with an emulsion of 200 μg bovine type II collagen in Complete Freund's Adjuvant. • 2. On day 21, mice received i.d. boost of 100 μg collagen in Incomplete Freund's Adjuvant • 3. Compounds were administered i.p. daily for 7 days starting from disease onset (day 3-4 after boost). • 4. Foot swelling was measured by an engineering micrometer and disease severity was scored accordingly (1, erythema and mild swelling confined to the tarsal or ankle joint; 2, erythema and mild swelling extending from the ankle to the mid-foot; 3, erythema and moderate swelling extending from the ankle to the metatarsal joints; 4, erythema and severe swelling encompassing the ankle, foot, and digits). • 5. Change (Δ) of paw thickness=sum of paw thickness from 4 paws of a mouse (experimental)−sum of baseline paw thickness from 4 paws of the same mouse. • 6. % inhibition=cumulative A paw thickness (disease group−compound-treated group)/cumulative A paw thickness (disease group)
(§2) • 1. Paws were collected from mice after 5-7 days of dosing and dissected free of skin. • 2. The paws were then homogenized in ice-cold PBS (2 ml/4 paws/mouse) containing 1× protease inhibitor using a Polytron homogenizer. • 3. Debris and particles were removed from the homogenized samples by centrifugation. • 4. Liquid layers were collected for MMP-9, IL-1, IL-6, RANKL, MCP-1, and TNFα analysis using ELISA kits from R & D System.

IL-1 = assay: Paw extract biomarker ELISA, CIA mice: IL-1; format: in vivo, mouse; settings: paw extracts from CIA mice
Description: as §1, §2

S. aureus RN450 = assay: Antibacterial activity MIC, Gram+ (Table 9); format: cell-based; settings: Staphylococcus aureus, CAMHB, 35° C., approximately 18 hr
Procedure, shortened: (§3)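 MIC taken as lowest compound level preventing growth after about 18 h at 35 °C (ambient air), read by microplate reader with visual check. Fresh log-phase cultures were inoculated to about 5×10^5 CFU/ml final into CAMHB dilutions spanning 200 to 0.098 μg/ml, starting from a DMSO stock.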

[1] = system: collagen-induced arthritis (CIA) in male DBA/1 mice; assay: Murine collagen-induced arthritis (CIA) model, Example 2; format: in vivo, mouse; settings: for % Inhibition (Change in Paw Thickness) AVG / % Inhibition (Clinical Score) AVG / Change in Paw Thickness (mm) Mean: 25 mg/kg/day i.p.; for % Inhibition (Change in Paw Thickness) AVG / % Inhibition (Clinical Score) AVG: dosed after disease onset; for EC50 in inflammation suppression in CIA mice: i.p. daily; for Effects on reduction of paw swelling and clinical score compared to either minocycline or methotrexate / joint inflammation when administered after disease onset: murine CIA model
Description: Four non-antibacterial analogues of minocycline (J, W, AF and AT) were synthesized and tested in the murine model of the disease, collagen-induced arthritis (CIA) (See supra). Male DBA/1 mice were immunized intradermally with 200 μg of bovine type II collagen and boosted with collagen three weeks later. Minocycline and four non-antibacterial minocycline derivatives were administered i.p. beginning after disease onset. Paw thickness was measured and animals were scored daily.
as §1

[2] = system: E. coli ATCC25922 (tetracycline sensitive); assay: E. coli MIC, broth micro-dilution per CLSI guidelines (Table 3); format: cell-based; settings: for MIC: Escherichia coli, E. coli ATCC25922, cation-adjusted Mueller Hinton broth
E. coli 25922 = assay: Antibacterial activity MIC, Gram- (Table 9); format: cell-based; settings: Escherichia coli, CAMHB, 35° C., approximately 18 hr
Procedure, shortened: as §3

RANKL = assay: Paw extract biomarker ELISA, CIA mice: RANKL; format: in vivo, mouse; settings: paw extracts from CIA mice
Description: as §1, §2

[3] = Pharmacokinetics in rats after i.v. and oral dosing; format: in vivo; settings: rat; for bioavailability: male, CD/IGS, after oral dosing of 5 mg/kg, read-out: PK Parameters (Rat) % F, fraction of absorption; for bioavailability / half-life: plasma; for half-life: male CD/IGS rats, 1 mg/kg i.v. or 5 mg/kg oral, read-out: PK Parameters (Rat) T1/2 (converted)
Description: Pre-cannulated (jugular vein and carotid artery for i.v. group and carotid artery for oral group) male CD/IGS rats (approximately 250 g) were used. Rats were fasted overnight prior to dosing with access to food restored 2 hours after dosing. Rats were administered with approximately 0.25 mL compound (1 mg/kg dose) for i.v. route (via jugular vein over 20 seconds) or 0.5 mL solution (5 mg/kg dose) orally. Blood (300 μL) was collected in tubes with EDTA anticoagulant at various time points, centrifuged and plasma collected and stored frozen at −20° C. Animals were euthanized by CO2 following the final blood collection. Plasma was extracted (0.1% trifluoroacetic acid in 67% acetonitrile/33% water) and levels of compound quantified by HPLC/MS against a standard curve.

MCP-1 = assay: Paw extract biomarker ELISA, CIA mice: MCP-1; format: in vivo, mouse; settings: paw extracts from CIA mice
Description: as §1, §2

[4] = system: cytokines (IL-1, IL-6, RANKL and MCP-1) and a matrix metalloproteinase (MMP-9); assay: Paw extract biomarker ELISA, CIA mice: whole panel (statements in words); format: in vivo, mouse
Description: as §1, §2

[5] = system: collagen-induced arthritis (CIA) in male DBA/1 mice; assay: CIA model, Example 3 (cumulative scores vs untreated controls); format: in vivo; settings: Mus musculus
Procedure, shortened: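 Immunised intradermally with bovine type II collagen in CFA and boosted at day 21 in IFA. After onset, tetracycline derivatives given daily i.p. or orally for 8 to 15 days. Daily visual inflammation scores (0–4 scale) and micrometer paw thickness summed into cumulative scores.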

[6] = system: Protein synthesis (E. coli S30 Extract System); assay: Protein synthesis inhibition, in vitro transcription/translation assay (E. coli S30 Extract System for Circular DNA); format: biochemical
MMP-9 = assay: Paw extract biomarker ELISA, CIA mice: MMP-9; format: in vivo, mouse; settings: paw extracts from CIA mice
Description: as §1, §2

Row | Structure (SMILES) | MIC (S. aureus RN450) [µg/mL] | % Inhibition (Change in Paw Thickness) AVG [1] [%] | % Inhibition (Clinical Score) AVG [1] [%] | EC50 in inflammation suppression in CIA mice [1] [mg/kg/day i.p.] | Change in Paw Thickness (mm) Mean ([1]; day 1 of dosing) [mm] | Change in Paw Thickness (mm) Mean ([1]; day 2 of dosing) [mm] | Change in Paw Thickness (mm) Mean ([1]; day 3 of dosing) [mm] | Change in Paw Thickness (mm) Mean ([1]; day 4 of dosing) [mm] | Change in Paw Thickness (mm) Mean ([1]; day 5 of dosing) [mm] | Change in Paw Thickness (mm) Mean ([1]; day 6 of dosing) [mm] | Change in Paw Thickness (mm) Mean ([1]; day 7 of dosing) [mm] | Change in Paw Thickness (mm) Mean ([1]; day 8 of dosing) [mm] | Effects on reduction of paw swelling and clinical score compared to either minocycline or methotrexate [1] | joint inflammation when administered after disease onset [1] | anti-bacterial activity compared to minocycline [2] | MIC [2] [µg/mL] | MIC (E. coli 25922) [µg/mL] | bioavailability [3] [%] | bio-available after oral dosing in rats [3] | half-life [3] [h] | further results
1 | CCc1cc(N(C)C)c2c(c1O)C(=O)C1=C(O)[C@]3(O)C(=O)C(C(N)=O)=C(O)C[C@@H]3C[C@@H]1C2 [Compound AF] | 1 (≈ 2.26 µM) | 62 | 42 | 12 | 0.55 | 0.39 | 0.61 | 0.49 | 0.46 | 0.38 | 0.42 | 0.54 | greater | inhibited joint inflammation | no anti-bacterial activity | > 64 | > 64 | 77 | bio-available | 3.1 | Percent level of Biomarker Tissue [c] Compared to Untreated Control, IL-6 AVG (IL-6): 35%; Percent level of Biomarker Tissue [c] Compared to Untreated Control, IL-1 AVG (IL-1): 55%; Percent level of Biomarker Tissue [c] Compared to Untreated Control, RANKL AVG (RANKL): 38%; Percent level of Biomarker Tissue [c] Compared to Untreated Control, MCP-1 AVG (MCP-1): 43%; inhibition of inflammatory/osteoclastic cytokines (MMP-9, IL-1, IL-6, MCP-1, RANKL) in vivo [4]: better than minocycline; inhibition in vivo at 6 mg/kg [5]: 28%; inhibition in vivo at 12 mg/kg [5]: 49%; inhibition in vivo at 35 mg/kg ([5]; Dose 35 mg/kg): 62%; IC50 [6]: > 100 µM; Percent level of Biomarker Tissue [c] Compared to Untreated Control, MMP-9 AVG (MMP-9): 113%
2 | CN(C)c1cc(-c2cccn2C)c(O)c2c1C[C@H]1C[C@H]3CC(O)=C(C(N)=O)C(=O)[C@@]3(O)C(O)=C1C2=O [Compound AT] | 1 (≈ 2.03 µM) | 81 | 70 | 12 | 0.94 | 0.57 | 0.55 | 0.11 | 0.05 | 0.27 | −0.01 | −0.08 | greater | inhibited joint inflammation | no anti-bacterial activity | > 64 | > 64 | 42 | bio-available | 6.4 | inhibition of inflammatory/osteoclastic cytokines (MMP-9, IL-1, IL-6, MCP-1, RANKL) in vivo [4]: better than minocycline; inhibition in vivo at 6 mg/kg [5]: 45%; inhibition in vivo at 12 mg/kg [5]: 49%; inhibition in vivo at 25 mg/kg [5]: 81%; IC50 [6]: > 100 µM
3 | CC(C)c1cc(N(C)C)c2c(c1O)C(=O)C1=C(O)[C@]3(O)C(=O)C(C(N)=O)=C(O)[C@@H](N(C)C)[C@@H]3C[C@@H]1C2 [Compound J] | 2 (≈ 4 µM) | 71 | 45 | 14 | 0.47 | 0.39 | 0.33 | 0.48 | 0.36 | 0.37 | 0.50 | 0.65 | greater | inhibited joint inflammation | no anti-bacterial activity | > 64 | > 64 | 65 | bio-available | 2.5 | Percent level of Biomarker Tissue [c] Compared to Untreated Control, IL-6 AVG (IL-6): 68%; Percent level of Biomarker Tissue [c] Compared to Untreated Control, IL-1 AVG (IL-1): 52%; Percent level of Biomarker Tissue [c] Compared to Untreated Control, RANKL AVG (RANKL): 32%; Percent level of Biomarker Tissue [c] Compared to Untreated Control, MCP-1 AVG (MCP-1): 60%; inhibition of inflammatory/osteoclastic cytokines (MMP-9, IL-1, IL-6, MCP-1, RANKL) in vivo [4]: better than minocycline; inhibition in vivo at 12 mg/kg [5]: 34%; inhibition in vivo at 25 mg/kg [5]: 71%; IC50 [6]: > 100 µM; Percent level of Biomarker Tissue [c] Compared to Untreated Control, MMP-9 AVG (MMP-9): 68%
